{"source": "paper PMC6021032", "about": "“Antimycobacterial activity of nitrogen heterocycles derivatives: 7-(pyridine-4-yl)-indolizine derivatives. Part VII^8–12” (Journal of Enzyme Inhibition and Medicinal Chemistry, 2017)", "key": {"[1]": {"assay": "Caco-2 permeability assay", "conditions": "human, Caco-2", "protocol": "The Caco-2 cell layer permeability assay is widely used as a more predictive in vitro model of absorption through the intestinal epithelium. […] For B–A permeability, test compound was added to the basal side of the Caco-2 monolayer and the transport of the compound to the apical side monitored. The amount of compound present in each compartment was quantified by LC-MS/MS.\nrecovered and analyzed by LC-MS/MS.\n3.2. Caco-2 Permeability Assay\nfeeding at 2-day intervals.\nEach experiment included the\ncontained transport buffer at pH 7.4.\n3.3. Cytochrome P450 Inhibition Assay\nand was < 0.2%. Samples were run in duplicate. Compounds were incubated with human liver"}, "CYP2D6": {"molecular_target": "T1, CYP2D6 (Homo sapiens, UniProt P10635)", "T1 construct": "Compounds were incubated with human liver; from tissue; host or cells: human liver microsomes", "T1 sequence (P10635 whole entry)": "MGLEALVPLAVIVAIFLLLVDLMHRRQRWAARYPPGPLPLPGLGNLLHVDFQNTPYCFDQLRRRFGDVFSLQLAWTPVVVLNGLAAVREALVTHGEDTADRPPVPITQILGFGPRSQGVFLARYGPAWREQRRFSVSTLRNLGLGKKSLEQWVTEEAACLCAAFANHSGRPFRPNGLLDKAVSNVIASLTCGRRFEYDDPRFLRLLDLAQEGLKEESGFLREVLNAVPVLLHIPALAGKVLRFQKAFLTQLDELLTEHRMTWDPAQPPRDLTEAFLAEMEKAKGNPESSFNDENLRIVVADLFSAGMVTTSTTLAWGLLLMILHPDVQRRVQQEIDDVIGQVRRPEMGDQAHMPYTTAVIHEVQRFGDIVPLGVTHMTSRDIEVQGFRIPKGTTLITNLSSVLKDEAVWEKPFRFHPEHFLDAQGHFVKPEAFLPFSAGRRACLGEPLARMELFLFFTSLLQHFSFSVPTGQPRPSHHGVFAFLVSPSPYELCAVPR", "assay": "Cytochrome P450 inhibition in human liver microsomes", "format": "in vitro ADME"}, "M. tuberculosis H37Rv": {"tested_on": "M. tuberculosis H37Rv", "assay": "Cycle 2 repeat of MIC, IC50, IC90 under aerobic conditions (lower starting concentrations)", "format": "cell-based, Mycobacterium tuberculosis", "conditions": "Mycobacterium tuberculosis, revaluation"}, "CYP2B6": {"molecular_target": "T2, CYP2B6 (Homo sapiens, UniProt P20813)", "T2 construct": "Compounds were incubated with human liver; from tissue; host or cells: human liver microsomes", "T2 sequence (P20813 1-491)": "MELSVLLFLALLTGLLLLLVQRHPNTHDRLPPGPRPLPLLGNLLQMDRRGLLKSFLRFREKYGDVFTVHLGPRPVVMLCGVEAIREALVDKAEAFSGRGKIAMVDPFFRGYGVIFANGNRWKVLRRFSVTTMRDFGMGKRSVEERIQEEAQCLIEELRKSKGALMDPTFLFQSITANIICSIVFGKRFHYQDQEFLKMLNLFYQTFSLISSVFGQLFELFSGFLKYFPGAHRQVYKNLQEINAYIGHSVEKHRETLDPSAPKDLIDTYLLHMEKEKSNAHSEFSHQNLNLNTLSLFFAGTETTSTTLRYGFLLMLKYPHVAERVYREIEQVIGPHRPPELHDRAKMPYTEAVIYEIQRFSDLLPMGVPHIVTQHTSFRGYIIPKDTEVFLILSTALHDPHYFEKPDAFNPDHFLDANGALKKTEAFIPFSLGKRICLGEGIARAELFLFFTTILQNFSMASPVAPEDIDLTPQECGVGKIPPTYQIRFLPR", "assay": "Cytochrome P450 inhibition in human liver microsomes", "format": "in vitro ADME"}, "CYP2C19": {"molecular_target": "T3, CYP2C19 (Homo sapiens, UniProt P33261)", "T3 construct": "Compounds were incubated with human liver; from tissue; host or cells: human liver microsomes", "T3 sequence (P33261 whole entry)": "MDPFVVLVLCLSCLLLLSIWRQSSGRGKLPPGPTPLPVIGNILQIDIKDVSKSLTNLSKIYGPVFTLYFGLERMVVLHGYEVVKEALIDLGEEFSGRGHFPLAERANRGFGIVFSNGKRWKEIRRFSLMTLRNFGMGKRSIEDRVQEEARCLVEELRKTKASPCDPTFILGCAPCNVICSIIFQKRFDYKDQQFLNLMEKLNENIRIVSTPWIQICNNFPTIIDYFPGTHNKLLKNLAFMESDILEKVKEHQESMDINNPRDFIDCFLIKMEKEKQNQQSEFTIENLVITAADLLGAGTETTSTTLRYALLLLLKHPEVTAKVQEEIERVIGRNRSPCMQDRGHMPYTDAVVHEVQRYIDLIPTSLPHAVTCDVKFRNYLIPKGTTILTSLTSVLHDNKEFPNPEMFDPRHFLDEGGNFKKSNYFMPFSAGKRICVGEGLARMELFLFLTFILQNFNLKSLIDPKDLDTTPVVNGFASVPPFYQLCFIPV", "assay": "Cytochrome P450 inhibition in human liver microsomes", "format": "in vitro ADME"}, "Mtb H37Rv": {"tested_on": "Mtb H37Rv", "assay": "LORA parallel plates, oxygen-deprived bacteria incubated under aerobic conditions (normal oxygen)", "format": "cell-based, Mycobacterium tuberculosis", "conditions": "Mycobacterium tuberculosis, H37RV"}, "CYP2C8": {"molecular_target": "T4, CYP2C8 (Homo sapiens, UniProt P10632)", "T4 construct": "Compounds were incubated with human liver; from tissue; host or cells: human liver microsomes", "T4 sequence (P10632 1-490)": "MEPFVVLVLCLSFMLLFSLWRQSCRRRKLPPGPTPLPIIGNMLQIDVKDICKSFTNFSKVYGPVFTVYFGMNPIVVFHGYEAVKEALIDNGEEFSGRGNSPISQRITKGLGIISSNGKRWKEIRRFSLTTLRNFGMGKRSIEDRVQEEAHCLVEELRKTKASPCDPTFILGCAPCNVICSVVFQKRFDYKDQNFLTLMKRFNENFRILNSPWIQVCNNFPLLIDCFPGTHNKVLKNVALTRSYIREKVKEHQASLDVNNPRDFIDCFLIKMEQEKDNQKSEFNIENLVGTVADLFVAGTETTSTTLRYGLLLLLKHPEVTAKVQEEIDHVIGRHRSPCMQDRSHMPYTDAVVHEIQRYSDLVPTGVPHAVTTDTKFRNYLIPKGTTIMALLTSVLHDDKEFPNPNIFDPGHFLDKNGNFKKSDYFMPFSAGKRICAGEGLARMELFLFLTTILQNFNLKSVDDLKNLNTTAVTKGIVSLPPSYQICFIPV", "assay": "Cytochrome P450 inhibition in human liver microsomes", "format": "in vitro ADME"}, "in vitro": {"assay": "in vitro", "conditions": "human", "description": "The stability of compound is expressed as a function of time[41]^,[42]\n3.4. In vitro Microsomal Stability Assay\ncompound to detect NADPH-free degradation. Verapamil and dextromethorphan were\nincluded as control compounds."}, "Mycobacterium avium": {"tested_on": "Mycobacterium avium", "assay": "MIC against nontuberculous mycobacteria (Alamar blue)", "format": "cell-based", "conditions": "M. avium"}, "CYP2C9": {"molecular_target": "T5, CYP2C9 (Homo sapiens, UniProt P11712)", "T5 construct": "Compounds were incubated with human liver; from tissue; host or cells: human liver microsomes", "T5 sequence (P11712 whole entry)": "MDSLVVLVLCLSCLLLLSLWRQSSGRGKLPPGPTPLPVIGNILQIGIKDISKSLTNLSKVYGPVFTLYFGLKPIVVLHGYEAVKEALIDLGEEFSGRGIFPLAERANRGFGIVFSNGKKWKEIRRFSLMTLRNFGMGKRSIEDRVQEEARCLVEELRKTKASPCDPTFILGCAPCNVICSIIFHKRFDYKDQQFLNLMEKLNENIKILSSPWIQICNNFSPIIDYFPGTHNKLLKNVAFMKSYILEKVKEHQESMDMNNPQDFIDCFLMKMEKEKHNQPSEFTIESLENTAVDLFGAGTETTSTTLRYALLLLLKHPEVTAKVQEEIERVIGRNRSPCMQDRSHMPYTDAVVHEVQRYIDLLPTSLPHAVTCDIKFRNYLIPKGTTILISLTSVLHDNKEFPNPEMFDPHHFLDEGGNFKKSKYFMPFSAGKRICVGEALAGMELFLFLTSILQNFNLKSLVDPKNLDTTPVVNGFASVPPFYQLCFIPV", "assay": "Cytochrome P450 inhibition in human liver microsomes", "format": "in vitro ADME"}, "[2]": {"assay": "Cytotoxicity, THP-1 cell viability (CellTiter-Glo)", "conditions": "human"}, "Mycobacterium abscessus": {"tested_on": "Mycobacterium abscessus", "assay": "MIC, IC50, IC90 against nontuberculous mycobacteria (OD590)", "format": "cell-based", "conditions": "M. abscessus"}, "[3]": {"assay": "Plasma protein binding by equilibrium dialysis"}}, "note": "Like-named read-outs stand apart in the source and are kept apart here."}
{"smiles": "CCOC(=O)c1cc(C(=O)c2ccc(Cl)cc2)n2ccc(-c3cc[n+](CC(=O)c4ccc(C)cc4)cc3)cc12", "note": "[Compound 6i]", "values": [{"measurement": "Papp B→A", "setting": "[1]", "value": 1.3, "unit": "×10⁻⁶ cm/s"}, {"measurement": "efflux ratio", "setting": "[1]", "value": 1.7}, {"measurement": "IC50", "setting": "CYP2D6", "value": "> 5", "unit": "µM"}, {"measurement": "IC50", "setting": "M. tuberculosis H37Rv; aerobic", "value": 9.8, "unit": "µM"}, {"measurement": "IC90", "setting": "M. tuberculosis H37Rv; aerobic", "value": 17, "unit": "µM"}, {"measurement": "MIC", "setting": "M. tuberculosis H37Rv; repeated at lower starting concentrations, read-out: MIC aerobic condition", "value": 16, "unit": "µM"}, {"measurement": "IC50", "setting": "CYP2B6", "value": "> 5", "unit": "µM"}, {"measurement": "IC50", "setting": "CYP2C19", "value": "> 5", "unit": "µM"}, {"measurement": "IC50", "setting": "Mtb H37Rv", "value": 6.5, "unit": "µM"}, {"measurement": "IC90", "setting": "Mtb H37Rv", "value": 28, "unit": "µM"}, {"measurement": "MIC", "setting": "Mtb H37Rv; 120 h, oxygen-deprived bacteria, aerobic 5 d", "value": 140, "unit": "µM"}, {"measurement": "IC50", "setting": "CYP2C8", "value": "> 5", "unit": "µM"}, {"measurement": "NADPH-dependent CLint", "setting": "in vitro; s9", "value": "very highly cleared"}, {"measurement": "microsomal CLint at 1 μM", "setting": "in vitro; s9, NADPH-dependent CLint", "value": 369, "unit": "µL/min/mg"}, {"measurement": "half-life at 1 μM", "setting": "in vitro; s9, NADPH-dependent T1/2", "value": 6.3, "unit": "min"}, {"measurement": "microsomal CLint at 1 μM", "setting": "in vitro; s9, NADPH-free CLint", "value": "< 12.8", "unit": "µL/min/mg"}, {"measurement": "half-life at 1 μM", "setting": "in vitro; s9, NADPH-free T1/2", "value": "> 180", "unit": "min"}, {"measurement": "MIC", "setting": "Mycobacterium avium", "value": 50, "unit": "µM"}, {"measurement": "MIC", "setting": "Mycobacterium avium; Mycobacterium avium", "value": 50, "unit": "µM"}, {"measurement": "IC50", "setting": "CYP2C9", "value": "> 5", "unit": "µM"}, {"measurement": "IC50 at 3 days", "setting": "[2]", "value": 3.8, "unit": "µM"}, {"measurement": "MIC", "setting": "Mycobacterium abscessus", "value": "showed activity"}, {"measurement": "IC50", "setting": "Mycobacterium abscessus; Mycobacteroides abscessus", "value": 14, "unit": "µM"}, {"measurement": "IC90", "setting": "Mycobacterium abscessus; Mycobacteroides abscessus", "value": 23, "unit": "µM"}, {"measurement": "MIC", "setting": "Mycobacterium abscessus; Mycobacteroides abscessus, read-out: MIC", "value": 25, "unit": "µM"}, {"measurement": "Mean plasma fraction bound", "setting": "[3]; Human plasma, 5 µM, 4 h at 37 °C", "value": "strongly bound"}, {"measurement": "fraction unbound at 4 h, 5 µM", "setting": "[3]; human, human plasma, 5 µM, 4 h at 37 °C", "value": 0.003}, {"measurement": "fraction unbound at 4 h, 5 µM", "setting": "[3]; human, human plasma, Mean plasma fraction unbound, 5 µM, 4 h at 37 °C", "value": 0.0035}, {"measurement": "recovery at 4 h, 5 µM", "setting": "[3]; human, human plasma, dialysed against PBS in a RED device", "value": 48.7, "unit": "%"}]}
